Test results from ChEMBL document CHEMBL1201862, “PubChem BioAssay data set” (2004).
Where a name gives a salt, the structure may show the parent alone.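 Interpolation was linear, between the two tested concentrations surrounding the appropriate level; five concentrations were tested over 48 hours in 96-well plates. GI50: concentration for 50% inhibition of growth.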 Calls of active or inactive are those of the source. Cut-off read from the data, not from the text of the source: active = GI50 up to about 1.1 µM and inactive = higher.

Columns and labels:
Experiment in all cases: growth of human tumour cells (NCI), 48 h
SNB-75 = test system: SNB-75
NCI-H226 = test system: NCI-H226
SF-268 = test system: SF-268
OVCAR-3 = test system: OVCAR-3
CAKI-1 = test system: CAKI-1
OVCAR-8 = test system: OVCAR-8
SK-MEL-5 = test system: SK-MEL-5
SW-620 = test system: SW-620
EKVX = test system: EKVX
Malme-3M = test system: Malme-3M
SK-MEL-2 = test system: SK-MEL-2
M14 = test system: M14
NCI-H460 = test system: NCI-H460
NCI-H23 = test system: NCI-H23
U-251 = test system: U-251
SNB-19 = test system: SNB-19
HL-60 = test system: HL-60
HCC 2998 = test system: HCC 2998
K562 = test system: K562
LOX IMVI = test system: LOX IMVI

SMILES | GI50 (SNB-75) | GI50 (NCI-H226) | GI50 (SF-268) | GI50 (OVCAR-3) | GI50 (CAKI-1) | GI50 (OVCAR-8) | GI50 (SK-MEL-5) | GI50 (SW-620) | GI50 (EKVX) | GI50 (Malme-3M) | GI50 (SK-MEL-2) | GI50 (M14) | GI50 (NCI-H460) | GI50 (NCI-H23) | GI50 (U-251) | GI50 (SNB-19) | GI50 (HL-60) | GI50 (HCC 2998) | GI50 (K562) | GI50 (LOX IMVI)
COc1ccc(N2C(=O)C3c4[nH]c5ccc(F)cc5c4C4CCC(C(C)(C)C)CC4C3C2=O)cc1 (configuration not stated) | 1.84 µM (inactive) | > 10 µM (inactive) | 8.28 µM (inactive) | > 10 µM (inactive) | > 10 µM (inactive) | 7.8 µM (inactive) | > 10 µM (inactive) | 7.26 µM (inactive) | > 10 µM (inactive) | > 10 µM (inactive) | > 10 µM (inactive) | 7.85 µM (inactive) | 5.07 µM (inactive) | > 10 µM (inactive) | 5.02 µM (inactive) | > 10 µM (inactive) | > 10 µM (inactive) | > 10 µM (inactive) | – | –
CCCCCCCCCCCCCCCCCCN(C)CC(COP(=O)([O-])OCC[N+](C)(C)C)OC (configuration not stated) | 5.93 µM (inactive) | 16.5 µM (inactive) | 8.17 µM (inactive) | 28.6 µM (inactive) | 5.27 µM (inactive) | 26.6 µM (inactive) | 27.9 µM (inactive) | 17.5 µM (inactive) | 26.9 µM (inactive) | 26.7 µM (inactive) | 38.5 µM (inactive) | 9.84 µM (inactive) | 4.25 µM (inactive) | 20.2 µM (inactive) | 4.9 µM (inactive) | 7.29 µM (inactive) | 3.66 µM (inactive) | 6.75 µM (inactive) | 18.8 µM (inactive) | 10 µM (inactive)
CC(C)(C)N(Cc1ccoc1)C(=O)/C=C\[S+]([O-])c1ccccc1 (configuration not stated) | – | 25.9 µM (inactive) | 30.1 µM (inactive) | 13.3 µM (inactive) | 14.5 µM (inactive) | 14.4 µM (inactive) | 13.4 µM (inactive) | 10.2 µM (inactive) | 22.8 µM (inactive) | – | 20.9 µM (inactive) | 17.2 µM (inactive) | – | 12.9 µM (inactive) | 15.5 µM (inactive) | 28.3 µM (inactive) | 12.7 µM (inactive) | 18.5 µM (inactive) | 26.6 µM (inactive) | 5.45 µM (inactive)
CSc1ccccc1P(c1ccccc1SC)c1ccccc1SC | – | > 100 µM (inactive) | > 100 µM (inactive) | – | > 100 µM (inactive) | > 100 µM (inactive) | > 100 µM (inactive) | > 100 µM (inactive) | > 100 µM (inactive) | > 100 µM (inactive) | > 100 µM (inactive) | > 100 µM (inactive) | – | > 100 µM (inactive) | 31.6 µM (inactive) | > 100 µM (inactive) | – | – | > 100 µM (inactive) | > 100 µM (inactive)
O=C1CC2CC3OC3[C@H]3c4cc5c(cc4C(=O)N1C23)OCO5 (some centres not stated) | – | > 100 µM (inactive) | > 100 µM (inactive) | > 100 µM (inactive) | > 100 µM (inactive) | > 100 µM (inactive) | – | > 100 µM (inactive) | > 100 µM (inactive) | > 100 µM (inactive) | > 100 µM (inactive) | > 100 µM (inactive) | > 100 µM (inactive) | – | – | > 100 µM (inactive) | > 100 µM (inactive) | > 100 µM (inactive) | > 100 µM (inactive) | > 100 µM (inactive)
Nc1nnc(O)c2c1c(I)cn2C1OC(CO)C(O)C1O (configuration not stated) | 0.718 µM (active) | 3.04 µM (inactive) | 2.21 µM (inactive) | 0.0745 µM (active) | – | 0.105 µM (active) | 1.89 µM (inactive) | 0.0904 µM (active) | 1.3 µM (inactive) | 0.778 µM (active) | 0.0226 µM (active) | 0.64 µM (active) | 0.0728 µM (active) | 0.5 µM (active) | 1.09 µM (active) | 7.93 µM (inactive) | 0.118 µM (active) | 0.208 µM (active) | 0.75 µM (active) | 0.112 µM (active)
CCCCc1oc2ccccc2c1C(=O)c1cc(I)c(OCCN(CC)CC)c(I)c1 [AMIODARONE HYDROCHLORIDE] | 7.59 µM (inactive) | 4.5 µM (inactive) | 11 µM (inactive) | 6.22 µM (inactive) | 6.14 µM (inactive) | – | 4.7 µM (inactive) | 4.59 µM (inactive) | 9.79 µM (inactive) | 4.89 µM (inactive) | 4.63 µM (inactive) | – | 4.09 µM (inactive) | 6.15 µM (inactive) | 4.16 µM (inactive) | 6.21 µM (inactive) | 2.79 µM (inactive) | 3.85 µM (inactive) | 3.88 µM (inactive) | 3.82 µM (inactive)
COc1c(OC)c(OC)c2c(c1OC)c(=O)c1ccccc1n2C [MELICOPICINE] | > 100 µM (inactive) | > 100 µM (inactive) | > 100 µM (inactive) | > 100 µM (inactive) | > 100 µM (inactive) | > 100 µM (inactive) | > 100 µM (inactive) | > 100 µM (inactive) | > 100 µM (inactive) | – | > 100 µM (inactive) | > 100 µM (inactive) | > 10 µM (inactive) | > 100 µM (inactive) | > 100 µM (inactive) | > 100 µM (inactive) | 57.4 µM (inactive) | > 100 µM (inactive) | > 100 µM (inactive) | > 100 µM (inactive)
